Here are results for 84 compounds from patent US20200031778A1, “NOVEL 5-SUBSTITUTED IMIDAZOLYLMETHYL DERIVATIVES” (Bayer CropScience Aktiengesellschaft, priority 2016, published 2020).

The data set is described as follows: Log P by HPLC on reversed phase columns (EEC directive 79/831 Annex V.A8; methods [a], [b], [c]). The conditions noted are these: for chromatographic logP: reversed phase HPLC column, method [a]: LC-UV, acidic range, 0.1% formic acid in water and acetonitrile as eluent (linear gradient from 10% to 95% acetonitrile). It is filed as physicochemical. A digest of the protocol: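 Log P derived from retention times, interpolated linearly between bracketing straight-chain alkan-2-ones (3–16 carbons) of known Log P. Eluents ran acetonitrile 10% to 95% against water with 0.1% formic acid ([a], acidic), 0.001 M ammonium acetate ([b], neutral) or 0.1% phosphoric acid ([c], acidic); UV read-out.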

Take `N#Cc1cncn1CC(O)c1ccc(Oc2ccc(Cl)nc2)cc1Cl` (stereo not drawn) [I-43]: the LogP was 2.37^[a].

Consider `N#Cc1cncn1CC(O)(c1ccc(F)c(F)c1F)C1(Cl)CC1` (stereo not drawn) [I-626], for which the LogP was 2.37^[a]. The same measure, in the same setting: the figure for `OC(Cn1cncc1Cl)c1ccc(Oc2ccc(C(F)(F)F)cc2)cc1Cl` (stereo not drawn) [I-09] is 2.82^[a]; for `N#Cc1cncn1CC(O)(CC1CC1)c1cc(F)cc(F)c1` (stereo not drawn) [I-502] it is 2.29^[a]. `O=C(Cn1cncc1Cl)c1ccc(O)cc1Cl` [IX-145] returned a chromatographic logP of 0.97. On to `CC(=O)c1cncn1CC(C)(O)c1ccc(Oc2ccc(C(C)C)cc2)nc1C(F)(F)F` (stereo not drawn) [I-299], for which the LogP was 3.33^[a].

Consider `N#Cc1cncn1CC(O)(c1ccc(Cl)cc1)C1(Cl)CC1` (stereo not drawn) [I-232], for which the LogP was 2.49^[a]. On to `N#Cc1cncn1CC(O)c1cnc(Oc2ccc(Cl)cc2)cc1C(F)(F)F` (stereo not drawn) [I-120], for which the LogP was 2.87^[a].

Turning to `N#Cc1cncn1CC(O)(c1cc(Cl)cc(Cl)c1F)C1(F)CC1` (stereo not drawn) [I-572], the LogP is 2.66^[a]. In the case of `N#Cc1cncn1CC(O)(c1c(F)ccc(F)c1F)C1(F)CC1` (stereo not drawn) [I-590], the LogP was 2.07^[a].

Take `N#Cc1cncn1CC(O)(c1ccc(Cl)nc1F)C1(Cl)CC1` (stereo not drawn) [I-554]: the LogP is 2.15^[a].

Regarding `N#Cc1cncn1CC(O)(c1ccc(F)cc1F)C1CCCC1` (stereo not drawn) [I-478], the LogP was 2.78^[a]. Still for that read-out and setting: under `N#Cc1cncn1CC(O)(C#CC1CC1)C1(F)CC1` (stereo not drawn) [I-693] stands 1.74^[a]. Still for that read-out and setting: under `CC(O)(Cn1cncc1C#N)c1cnc(Oc2ccc(C(F)(F)F)cc2)cc1C(F)(F)F` (stereo not drawn) [I-218] stands 3.23^[a]; under `N#Cc1cncn1CC(O)(c1ccc(Cl)cc1Cl)C1(Cl)CC1` (stereo not drawn) [I-235], 2.67^[a]. Regarding `CC(C)(C)CC(O)(Cn1cncc1C#N)c1ccccc1F` (stereo not drawn) [I-274], the LogP is 2.92^[a]. The same measure, in the same setting: under `N#Cc1cncn1CC(O)(c1ccc(C#CC2CC2)cc1F)C1(Cl)CC1` (stereo not drawn) [I-651] stands 3.11^[a]; under `CC(C)(C)c1ccc(C(O)(Cn2cncc2C#N)C2(Cl)CC2)cc1` (stereo not drawn) [I-247], 3.29^[a]; under `CC(O)(Cn1cncc1Cl)c1cnc(Oc2ccc(Cl)cc2)cc1Br` (stereo not drawn) [I-177], 2.48^[a]. On the same count and under the same terms, the figure for `N#Cc1cncn1CC(O)(c1cccc(F)c1F)C1(F)CC1` (stereo not drawn) [I-524] is 2.02^[a]. On the same count and under the same terms, under `N#Cc1cncn1CC(O)c1ccc(Oc2ccc(S(F)(F)(F)(F)F)cc2)nc1Cl` (stereo not drawn) [I-68] stands 3.15^[a]; under `OC(Cn1cncc1F)c1cnc(Oc2ccc(C(F)(F)F)cc2)cc1Cl` (stereo not drawn) [I-126], 2.27^[a]; under `C=C(C)CC(O)(Cn1cncc1C#N)C1(Cl)CC1` (stereo not drawn) [I-675], 2.35^[a]. Consider `N#Cc1cncn1CC(O)(c1cc(F)c(F)cc1F)C1(F)CC1` (stereo not drawn) [I-521], for which the LogP is 2.18^[a].

Consider `N#Cc1cncn1CC(O)c1ccc(Oc2ccc(Cl)cn2)cc1C(F)(F)F` (stereo not drawn) [I-66], for which the LogP was 2.75^[a]. Turning to `OC(Cn1cncc1Cl)c1ccc(Oc2ccc(Cl)cc2)cc1F` (stereo not drawn) [I-32], the LogP was 2.39^[a]. Same read-out and setting: the figure for `N#Cc1cncn1CC(O)c1ccc(Oc2ccc(Br)nc2)nc1C(F)(F)F` (stereo not drawn) [I-154] is 2.46^[a]; for `CC(C)(C)C(O)(Cn1cncc1C#N)c1cc(F)cc(F)c1` (stereo not drawn) [I-457] it is 2.64^[a]. On the same count and under the same terms, under `OC(Cn1cncc1C(F)(F)F)c1ccc(Oc2ccc(Cl)cc2)cc1Cl` (stereo not drawn) [I-39] stands 3.80^[a]; under `CC(O)(Cn1cncc1Cl)c1ccc(Oc2ccc(C(F)(F)F)cc2)cc1C(F)(F)F` (stereo not drawn) [I-196], 3.01^[a]; under `CC(C)(C)CC(O)(Cn1cncc1C#N)c1ccccc1Br` (stereo not drawn) [I-308], 3.27^[a].

Take `N#Cc1cncn1CC(O)(CC1CC1)c1ccc(Br)cc1Br` (stereo not drawn) [I-429]: the LogP was 2.82^[a]. Turning to `N#Cc1cncn1CC(O)c1cnc(Oc2ccc(C(F)F)cc2)cc1C(F)(F)F` (stereo not drawn) [I-115], the LogP was 2.80^[a]. Same read-out and setting: under `N#Cc1cncn1CC(O)(c1ccc(C#CC2CC2)cc1Cl)C1(Cl)CC1` (stereo not drawn) [I-361] stands 3.25^[a]. On the same count and under the same terms, under `N#Cc1cncn1CC(O)(c1ccc(Cl)c(F)c1Cl)C1(Cl)CC1` (stereo not drawn) [I-617] stands 2.64^[a]. On the same count and under the same terms, under `CC(O)(Cn1cncc1C#N)c1ccc(Oc2ccc(C(F)(F)F)cc2)nc1C(F)(F)F` (stereo not drawn) [I-312] stands 3.25^[a]; under `CC(O)(Cn1cncc1Br)c1ccc(Oc2ccc(Br)cc2)cc1C(F)(F)F` (stereo not drawn) [I-192], 3.03^[a]; under `N#Cc1cncn1CC(O)(c1ccc(C(F)(F)F)cc1Cl)C1CC1` (stereo not drawn) [I-418], 2.98^[a]. On to `N#Cc1cncn1CC(O)(c1ccc(Cl)cc1C(F)(F)F)C1CC1` (stereo not drawn) [I-464], for which the LogP is 2.78^[a]. The same measure, in the same setting: the figure for `CCOC(Cn1cncc1Br)c1ccc(Oc2ccc(Cl)cc2)cc1Br` (stereo not drawn) [I-56] is 3.99^[a]; for `C#Cc1ccc(C(O)(Cn2cncc2C#N)C2(Cl)CC2)c(F)c1` (stereo not drawn) [I-659] it is 2.42^[a]. Still for that read-out and setting: under `OC(Cn1cncc1Cl)c1ccc(Oc2ccc(Cl)cn2)cc1Cl` (stereo not drawn) [I-37] stands 1.98^[a]; under `N#Cc1cncn1CC(O)(c1ccc(F)cc1C(F)(F)F)C1CC1` (stereo not drawn) [I-467], 2.47^[a]; under `N#Cc1cncn1CC(O)(CC1CC1)c1ccc(F)c(Br)c1` (stereo not drawn) [I-496], 2.56^[a]. Regarding `O=C(Cn1cncc1F)c1ccc(Oc2ccc(S(F)(F)(F)(F)F)cc2)nc1C(F)(F)F` [IX-136], the LogP was 3.06^[a]. Take `CCCCCC(O)(Cn1cncc1C#N)c1ccccc1C(F)(F)F` (stereo not drawn) [I-346]: the LogP is 3.23^[a]. The same measure, in the same setting: the figure for `N#Cc1cncn1CC(O)(CC1CC1)c1ccc(F)c(F)c1` (stereo not drawn) [I-489] is 2.30^[a]; for `N#Cc1cncn1CC(O)(c1ccc(F)nc1F)C1(F)CC1` (stereo not drawn) [I-551] it is 1.79^[a]. Take `C[Si](C)(C#CC(O)(Cn1cncc1C#N)C1(Cl)CC1)c1ccccc1` (stereo not drawn) [I-594]: the LogP is 3.31^[a]. For the compound `C#Cc1ccc(C(O)(Cn2cncc2C#N)C2(F)CC2)c(F)c1` (stereo not drawn) [I-647], the LogP is 2.21^[a]. Still for that read-out and setting: the figure for `N#Cc1cncn1CC(O)c1ccc(Oc2ccc(C(F)(F)F)cc2)cc1C(F)(F)F` (stereo not drawn) [I-53] is 3.52^[a]; for `N#Cc1cncn1CC(O)(CC1CCCCC1)c1ccc(F)cc1F` (stereo not drawn) [I-466] it is 3.44^[a]; for `N#Cc1cncn1CC(O)(c1cc(Br)ccc1F)C1(F)CC1` (stereo not drawn) [I-631] it is 2.31^[a]. As for `OC(Cn1cncc1Cl)c1ccc(Oc2ccc(Cl)cc2)cc1Br` (stereo not drawn) [I-23], the LogP was 2.54^[a]. Same read-out and setting: the figure for `N#Cc1cncn1CC(O)(C#CCC1CCCCC1)CC1CC1` (stereo not drawn) [I-593] is 3.33^[a].

Take `N#Cc1cncn1CC(O)(c1ccc(C#CC2CC2)cc1Cl)C1(F)CC1` (stereo not drawn) [I-639]: the LogP was 3.03^[a]. On the same count and under the same terms, under `N#Cc1cncn1CC(O)(c1ccc(F)c(Cl)c1F)C1(F)CC1` (stereo not drawn) [I-635] stands 2.35^[a]; under `CC(C)C(O)(Cn1cncc1C#N)c1ccc(F)cc1F` (stereo not drawn) [I-419], 2.35^[a].

`N#Cc1cncn1CC(O)(c1cccc(Cl)c1F)C1(Cl)CC1` (stereo not drawn) [I-553]: the LogP is 2.40^[a]. On to `N#Cc1cncn1CC(O)(c1ccc(Cl)cc1Br)C1(F)CC1` (stereo not drawn) [I-386], for which the LogP is 2.66^[a]. Still for that read-out and setting: under `CC(C)C(O)(Cn1cncc1C#N)c1ccccc1C(F)(F)F` (stereo not drawn) [I-345] stands 2.46^[a]. `N#Cc1cncn1CC(=O)c1ccc(F)cc1F` [IX-87]: the chromatographic logP is 1.75. As for `N#Cc1cncn1CC(O)(c1cc(Cl)cc(F)c1F)C1(F)CC1` (stereo not drawn) [I-570], the LogP is 2.44^[a]. On the same count and under the same terms, the figure for `CC(=O)c1cncn1CC(C)(O)c1cnc(Oc2ccc(C(F)(F)F)cc2)cc1Br` (stereo not drawn) [I-252] is 2.84^[a]; for `OC(Cn1cncc1Cl)c1ccc(Oc2ccc(Br)cc2)cc1C(F)(F)F` (stereo not drawn) [I-20] it is 2.96^[a]; for `CC(O)(Cn1cncc1Cl)c1ccc(Oc2ccc(OC(F)(F)F)cc2)c(Br)c1` (stereo not drawn) [I-157] it is 2.90^[a]. Regarding `CCCOC(Cn1cncc1C#N)c1ccc(Oc2ccc(Cl)cc2)cc1C(F)(F)F` (stereo not drawn) [I-85], the LogP was 4.92^[a]. For `CCCC(C)C(O)(Cn1cncc1C#N)c1ccc(Cl)cc1Cl` (single isomer, unassigned) [I-316], the LogP is 3.72^[a]. The same measure, in the same setting: under `COC(C)(Cn1cncc1Br)c1ccc(Oc2ccc(Cl)cc2)cc1C(F)(F)F` (stereo not drawn) [I-201] stands 3.76^[a].

As to `Cc1ccc(C#CC(O)(Cn2cncc2C#N)C2(F)CC2)cc1` (stereo not drawn) [I-373], the LogP is 2.52^[a].

As to `N#Cc1cncn1CC(O)(c1c(F)ccc(F)c1Cl)C1(F)CC1` (stereo not drawn) [I-567], the LogP was 2.15^[a].

Turning to `CCCCCCC(O)(CC1CC1)Cn1cncc1C#N` (stereo not drawn) [I-427], the LogP was 3.35^[a]. On the same count and under the same terms, under `CC(O)(Cn1cncc1F)c1ccc(Oc2ccc(C(F)(F)F)nc2)nc1C(F)(F)F` (stereo not drawn) [I-290] stands 2.06^[a]; under `OC(Cn1cncc1Cl)c1ccc(Oc2ccc(F)cc2)cc1Cl` (stereo not drawn) [I-03], 2.28^[a]. For `CC(O)(Cn1cncc1Cl)c1ccc(Oc2ccc(Cl)cc2)cc1` (stereo not drawn) [I-164], the LogP is 2.32^[a].

Turning to `C#CCOC(Cn1cncc1F)c1ccc(Oc2ccc(Cl)cc2)cc1C(F)(F)F` (stereo not drawn) [I-106], the LogP was 3.26^[a]. The same measure, in the same setting: the figure for `CCCCC(O)(Cn1cncc1C#N)c1ccc(Cl)cc1Cl` (stereo not drawn) [I-261] is 3.41^[a]. For the compound `COc1cc(F)ccc1C(O)Cn1cncc1Cl` (stereo not drawn) [I-07], the LogP is 1.07^[a].

With `OC(Cn1cncc1Br)c1ccc(Oc2ccc(I)cc2)cc1Cl` (stereo not drawn) [I-28], the LogP is 2.88^[a]. Regarding `N#Cc1cncn1CC(O)(CC1CC1)C1(F)CC1` (stereo not drawn) [I-504], the LogP was 1.99^[a]. Same read-out and setting: under `CC(=O)c1cncn1CC(C)(O)c1ccc(Oc2ccc(Br)cc2)cc1F` (stereo not drawn) [I-190] stands 2.75^[a]. The same measure, in the same setting: the figure for `N#Cc1cncn1CC(O)(c1ccc(F)cc1Br)C1CC1` (stereo not drawn) [I-398] is 2.46^[a]. On the same count and under the same terms, the figure for `N#Cc1cncn1CC(O)(c1c(F)cc(F)cc1Br)C1(F)CC1` (stereo not drawn) [I-547] is 2.27^[a]. `N#Cc1ccc(Oc2ccc(C(O)Cn3cncc3Cl)c(Cl)c2)cc1` (stereo not drawn) [I-06]: the LogP was 2.03^[a].

The term chromatographic logP denotes lipophilicity estimated from chromatographic retention. The low end stands for a more hydrophilic compound, the high end for a more lipophilic compound.
